By Ki is commonly meant the equilibrium dissociation constant of an inhibitor or competing ligand from its target. For orientation: IC50 means the concentration needed to halve the response being measured.

This is an account of results in publication PMC3549521, “Carbocyclic Analogues of Inosine-5’-Monophosphate: Synthesis and Biological Activity” (Acta Naturae, 2012).

For assay [1], the target named is T1, human type II inosine-5′-monophosphate dehydrogenase (IMPDH II) (Homo sapiens, UniProt P12268).
T1 construct: gene IMPDH2; human recombinant IMPDH II
The assay is described as follows: recombinant enzyme assay, NADH formation at […] nm, […] IMP and […] NAD. It counts as biochemical.

In assay [2] the target is T1, human type II inosine-5′-monophosphate dehydrogenase (IMPDH II). The assay is described as follows: recombinant enzyme assay, NADH formation at […] nm; positive control. It counts as biochemical.

T1 sequence (P12268 2-514): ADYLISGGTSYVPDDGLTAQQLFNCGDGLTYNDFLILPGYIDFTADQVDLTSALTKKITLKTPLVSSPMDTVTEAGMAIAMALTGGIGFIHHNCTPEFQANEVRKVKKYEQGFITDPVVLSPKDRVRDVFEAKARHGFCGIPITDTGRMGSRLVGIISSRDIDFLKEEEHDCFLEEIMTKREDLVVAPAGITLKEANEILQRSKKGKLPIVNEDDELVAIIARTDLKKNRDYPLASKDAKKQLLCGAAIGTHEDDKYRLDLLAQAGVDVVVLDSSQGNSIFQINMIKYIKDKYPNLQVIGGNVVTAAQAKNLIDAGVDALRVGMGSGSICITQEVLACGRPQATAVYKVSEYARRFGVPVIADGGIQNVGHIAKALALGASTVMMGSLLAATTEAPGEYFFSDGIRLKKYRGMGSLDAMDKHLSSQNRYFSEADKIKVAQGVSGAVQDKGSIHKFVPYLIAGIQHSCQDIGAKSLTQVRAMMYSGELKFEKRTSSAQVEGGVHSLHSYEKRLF

As to `O=c1[nH]cnc2c1ncn2C1CC(OCP(=O)(O)O)C(O)C1O` (stereo not drawn) [compound 2, 9-(4’-phosphonomethoxy-2’,3’-dihydroxycyclopent-1’-yl)hypoxanthine], the Ki in assay [1] turned out to be 975 µM.

`NC(=O)c1ncn([C@@H]2O[C@H](COP(=O)(O)O)[C@@H](O)[C@H]2O)n1` [Ribavirin monophosphate]: the IC50 in assay [2] worked out at 2 µM. In the case of `O=c1[nH]cnc2c1ncn2C1C=CC(OCP(=O)(O)O)C1` (stereo not drawn) [compound 1, 9-(4’-Phosphonomethoxy-2’-cyclopenten-1’-yl)hypoxanthine], in assay [1], the inhibition constant (Ki) was determined as 474 µM.
